According to the supplement of paper PMC10307832:

Experiments:
Test in all cases: relative viability (nuclei count vs DMSO), 5 days (fraction); higher = more cells survive
[1] = test system: COR-L 105
Outline: (§1)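 Values are medians from duplicate plates. Each reflects relative viability, defined as the nuclei count of treated wells over that of vehicle wells. Lung cancer cell lines in 1536-well plates were pin-tool dosed one day after seeding with one drug alone or with a fixed anchor-drug dose plus five library-drug doses (not always all listed) in √10 steps, then fixed, stained and imaged at 4× after 5 days.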

[2] = test system: NCI-H1915
Outline: as §1

[3] = test system: EKVX
Outline: as §1

[4] = test system: NCI-H1944
Outline: as §1

[5] = test system: LXF-289
Outline: as §1

[6] = test system: PC-3 [JPC-3]
Outline: as §1

[7] = test system: NCI-H1793
Outline: as §1

[8] = test system: CAL-12T
Outline: as §1

[9] = test system: SK-MES-1
Outline: as §1

[10] = test system: NCI-H1437
Outline: as §1

[11] = test system: NCI-H2085
Outline: as §1

[12] = test system: NCI-H1651
Outline: as §1

For `O=C(O)CCCCC(CCSCc1ccccc1)SCc1ccccc1` (configuration not stated) [CPI-613] + COc1cccc2cc(-c3nc([C@H]4CC[C@H](C(=O)O)CC4)n4ncnc(N)c34)[nH]c12 [OSI-027] (partner 0.5 µM), the relative viability ([1]; first compound 5 µM) was 0.605, the relative viability ([1]; first compound 15.81 µM) was 0.407 and the relative viability ([1]; first compound 50 µM) was 0.49. It also gave a relative viability ([1]; first compound 158.11 µM) of 0.319, a relative viability ([1]; first compound 500 µM) of 0.105 and a relative viability ([2]; first compound 5 µM) of 0.557. It also gave a relative viability ([2]; first compound 15.81 µM) of 0.538, a relative viability ([2]; first compound 50 µM) of 0.485 and a relative viability ([2]; first compound 158.11 µM) of 0.447. For the same compound, the relative viability ([2]; first compound 500 µM) was 0.001, the relative viability ([3]; first compound 5 µM) was 0.631 and the relative viability ([3]; first compound 15.81 µM) was 0.624. It also gave a relative viability ([3]; first compound 50 µM) of 0.718, a relative viability ([3]; first compound 158.11 µM) of 0.673 and a relative viability ([3]; first compound 500 µM) of 0.693. The relative viability ([4]; first compound 5 µM) was 0.391, the relative viability ([4]; first compound 15.81 µM) was 0.388 and the relative viability ([4]; first compound 50 µM) was 0.351. It also gave a relative viability ([4]; first compound 158.11 µM) of 0.274, a relative viability ([4]; first compound 500 µM) of 0.0492 and a relative viability ([5]; first compound 5 µM) of 0.788. The relative viability ([5]; first compound 15.81 µM) was 0.694, the relative viability ([5]; first compound 50 µM) was 0.733 and the relative viability ([5]; first compound 158.11 µM) was 0.404. For the same compound, the relative viability ([5]; first compound 500 µM) was 0.0382, the relative viability ([6]; first compound 5 µM) was 0.753 and the relative viability ([6]; first compound 15.81 µM) was 0.658. The relative viability ([6]; first compound 50 µM) was 0.729, the relative viability ([6]; first compound 158.11 µM) was 0.517 and the relative viability ([6]; first compound 500 µM) was 0.276. For the same compound, the relative viability ([7]; first compound 5 µM) was 0.277, the relative viability ([7]; first compound 15.81 µM) was 0.241 and the relative viability ([7]; first compound 50 µM) was 0.245. For the same compound, the relative viability ([7]; first compound 158.11 µM) was 0.171, the relative viability ([7]; first compound 500 µM) was 0.0629 and the relative viability ([8]; first compound 5 µM) was 0.739. It also gave a relative viability ([8]; first compound 15.81 µM) of 0.515, a relative viability ([8]; first compound 50 µM) of 0.593 and a relative viability ([8]; first compound 158.11 µM) of 0.0379. For the same compound, the relative viability ([8]; first compound 500 µM) was 0.0106, the relative viability ([9]; first compound 5 µM) was 0.592 and the relative viability ([9]; first compound 15.81 µM) was 0.526. The relative viability ([9]; first compound 50 µM) was 0.465, the relative viability ([9]; first compound 158.11 µM) was 0.12 and the relative viability ([9]; first compound 500 µM) was 0.0545. For the same compound, the relative viability ([10]; first compound 5 µM) was 0.892, the relative viability ([10]; first compound 15.81 µM) was 0.814 and the relative viability ([10]; first compound 50 µM) was 0.818. The relative viability ([10]; first compound 158.11 µM) was 0.245, the relative viability ([10]; first compound 500 µM) was 0.0279 and the relative viability ([11]; first compound 5 µM) was 0.727. It also gave a relative viability ([11]; first compound 15.81 µM) of 0.659, a relative viability ([11]; first compound 50 µM) of 0.787 and a relative viability ([11]; first compound 158.11 µM) of 0.308. It also gave a relative viability ([11]; first compound 500 µM) of 0.112, a relative viability ([12]; first compound 5 µM) of 0.66 and a relative viability ([12]; first compound 15.81 µM) of 0.79.
